Patent US7678787B2, “Pyrrolobenzodiazepine pyridine carboxamides and derivatives as follicle-stimulating hormone receptor antagonists” (Wyeth, priority 2005, dated 2010)

How the values were obtained:
hFSH-R = target: T1, hFSH-R (Homo sapiens, UniProt P23945); assay: cAMP accumulation (RIA) in CHO-3D2 cells (hFSH-R), hFSH-induced; format: cell-based; conditions: inhibition of cAMP accumulation induced by hFSH at EC20, CHO-3D2 cells
T1 construct: expressed in transfected cells; host or cells: CHO-3D2 cells (CHO-K1 parental line)
T1 sequence (P23945 18-695): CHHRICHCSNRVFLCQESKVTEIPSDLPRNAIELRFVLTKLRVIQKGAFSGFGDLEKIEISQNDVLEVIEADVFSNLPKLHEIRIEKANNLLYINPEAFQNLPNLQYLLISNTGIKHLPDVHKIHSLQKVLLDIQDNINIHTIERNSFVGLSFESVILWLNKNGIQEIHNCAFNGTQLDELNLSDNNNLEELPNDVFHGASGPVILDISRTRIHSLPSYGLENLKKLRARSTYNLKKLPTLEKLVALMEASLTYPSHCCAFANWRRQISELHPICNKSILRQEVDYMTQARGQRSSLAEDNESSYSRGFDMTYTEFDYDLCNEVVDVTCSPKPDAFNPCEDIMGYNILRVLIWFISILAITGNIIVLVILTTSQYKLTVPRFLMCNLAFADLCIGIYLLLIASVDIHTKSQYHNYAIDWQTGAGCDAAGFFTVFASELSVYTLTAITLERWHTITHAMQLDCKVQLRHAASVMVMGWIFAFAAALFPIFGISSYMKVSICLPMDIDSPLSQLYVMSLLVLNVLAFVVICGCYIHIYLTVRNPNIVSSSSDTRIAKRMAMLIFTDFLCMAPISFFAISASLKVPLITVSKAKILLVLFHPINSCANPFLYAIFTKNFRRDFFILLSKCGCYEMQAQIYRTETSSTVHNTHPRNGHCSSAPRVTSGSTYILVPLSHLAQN
Experimental: IN VITRO BIO-ASSAY OF AGONISTS AND ANTAGONISTS TO THE FSH RECEPTOR. SELECTIVITY AND DEPENDENCY OF AGONISTS AND ANTAGONISTS TO THE FSH RECEPTOR
Compound Vehicle: Stock compounds were solubilized in 100% DMSO (Sigma-Aldrich Chemical Co., St. Louis, Mo.) at a concentration of 30 mM. The compounds subsequently were diluted in sterile assay medium consisting of Opti-MEM® I (Invitrogen/Life Technologies, Carlsbad, Calif.) with 0.1% (w/v) BSA (Sigma-Aldrich) prior to use in the bio-assay. The final concentration of DMSO in the assay was 0.1%.
Plated cells are then incubated at 37° C. in a humidified 5% CO2/95% air atmosphere.
Assay: On the day of the assay, cells were washed three times with 100 μl/well of assay medium consisting of Opti-MEM® I (Invitrogen/Life Technologies) with 0.1% (w/v) BSA (Sigma-Aldrich). Medium was removed and 100 μl of assay medium was added to each well. Plates were incubated for an additional 30 minutes at 37° C. […] Reactions were terminated by the addition of 50 μl of 0.2N hydrochloric acid to each well and cAMP-accumulation was measured by radioimmunoassay (RIA) using a commercially available kit (Amersham Biosciences, Piscataway, N.J.).
All test compounds were evaluated in a dose-response paradigm ranging from 0.01 to 30 μM. Controls and test compounds were evaluated in quadruplicate in a 96-well format.
Along with the test compounds, FSH was run also as a postive control in the agonist mode using concentrations ranging from 0.1-1000 ng/ml.
Data were analyzed by one-way analysis of variance and significant differences between treatments and control determined by Least Significant Difference test.
Test compounds were compared to the effect of purified human FSH.

human FSH receptor [1] = target: T2, human FSH receptor (Homo sapiens, UniProt P23945); assay: FSH receptor-dependent CRE-luciferase reporter gene assay (CHO FSH-R 6CRE-Luc cells); format: cell-based; conditions: dose-response format in presence of EC50 of purified human FSH; * n=3, ** n=2 averages
T2 construct: host or cells: CHO-K1 (CHO FSH-R 6CRE-Luc, 1D7 cells)
T2 sequence (P23945 18-695): T1 sequence (P23945 18-695)
In short: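 CHO-K1 cells stably expressing the recombinant human FSH receptor and a luciferase reporter controlled by 6 cAMP response elements were seeded at 50,000 cells/100 μl/well in 96-well white opaque plates. Antagonists were tested in dose-response against the EC50 of purified human FSH for 4 hours at 37° C, and luciferase chemiluminescence was read with a LucScreen kit.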

human FSH receptor [2] = target: T2, human FSH receptor; assay: FSH receptor-dependent CRE-luciferase reporter gene assay (CHO FSH-R 6CRE-Luc cells); format: cell-based; conditions: 2-dose format; test concentration in parentheses = 30 μM; percent inhibition of response to EC50 of FSH; read-out: CRE % inhibition

Row | Compound | IC50 (hFSH-R) | IC50 (human FSH receptor [1]) | melting point | inhibition at 30 µM (human FSH receptor [2])
1 | COc1ccccc1-c1ccc(C(=O)N2Cc3ccc(C(=O)NCc4cccnc4)n3Cc3ccccc32)cc1 [Example 8] | 500 nM | 540 nM | 123 to 127 °C | –
2 | Cc1cc(C(=O)N2Cc3ccc(C(=O)NCc4cccnc4)n3Cc3ccccc32)ccc1-c1c(C)cccc1C [Example 10] | – | – | – | 25%
3 | CS(=O)(=O)c1ccccc1-c1ccc(C(=O)N2Cc3ccc(C(=O)NCc4cccnc4)n3Cc3ccccc32)cc1 [Example 15] | 370 nM | 1100 nM | 153 to 156 °C | –
4 | N#CCc1ccccc1-c1ccc(C(=O)N2Cc3ccc(C(=O)NCc4cccnc4)n3Cc3ccccc32)cc1 [Example 17] | 130 nM | 290 nM | 105 to 108 °C | –
5 | NC(Cc1ccccc1-c1ccc(C(=O)N2Cc3ccc(C(=O)NCc4cccnc4)n3Cc3ccccc32)cc1)=NO [Example 18] | 70 nM | 41 nM | 131 to 134 °C | –
6 | Cc1cc(C(=O)N2Cc3ccc(C(=O)NCc4cccnc4)n3Cc3ccccc32)ccc1-c1cccc(Cl)c1 [Example 23] | – | – | – | 36%
7 | Cc1ccccc1-c1ccc(C(=O)N2Cc3ccc(C(=O)NCc4cccnc4)n3Cc3ccccc32)cc1 [Example 28] | 800 nM | 2000 nM | 176 to 177 °C | –
8 | CC(=O)c1ccccc1-c1ccc(C(=O)N2Cc3ccc(C(=O)NCc4cccnc4)n3Cc3ccccc32)cc1C [Example 29] | 400 nM | 900 nM | 171 to 172 °C | –
9 | CNCc1ccccc1-c1ccc(C(=O)N2Cc3ccc(C(=O)NCc4cccnc4)n3Cc3ccccc32)cc1 [Example 42] | 2000 nM | 7090 nM | 149 to 150 °C | –
10 | O=C(NCc1cccnc1)c1ccc2n1Cc1ccccc1N(C(=O)c1ccc(-c3ccccc3CN3CCOCC3)cc1)C2 [Example 43] | 140 nM | 257 nM | 191 to 194 °C | –
11 | O=C(NCc1cccnc1)c1ccc2n1Cc1ccccc1N(C(=O)c1ccc(-c3ccccc3CN3CCCCC3)cc1)C2 [Example 44] | 1710 nM | 2940 nM | 199 to 202 °C | –
12 | CN(C)Cc1ccccc1-c1ccc(C(=O)N2Cc3ccc(C(=O)NCc4cccnc4)n3Cc3ccccc32)cc1 [Example 45] | 780 nM | 3580 nM | 95 to 104 °C | –
13 | NCc1ccccc1-c1ccc(C(=O)N2Cc3ccc(C(=O)NCc4cccnc4)n3Cc3ccccc32)cc1 [Example 46] | 370 nM | 2190 nM | 115 to 120 °C | –
14 | COc1ccccc1-c1ccc(C(=O)N2Cc3ccc(C(=O)NCc4cccnc4)n3Cc3ccccc32)cc1C [Example 47] | 200 nM | 650 nM | 119 to 124 °C | –
15 | CCOc1ccccc1-c1ccc(C(=O)N2Cc3ccc(C(=O)NCc4cccnc4)n3Cc3ccccc32)cc1C [Example 48] | 300 nM | 1600 nM | 139 to 143 °C | –

Second part, the compound after the results:

Row | IC50 (hFSH-R) | IC50 (human FSH receptor [1]) | melting point | inhibition at 30 µM (human FSH receptor [2]) | Compound
16 | 100 nM | 600 nM | 163 to 164 °C | – | COCc1ccccc1-c1ccc(C(=O)N2Cc3ccc(C(=O)NCc4cccnc4)n3Cc3ccccc32)cc1C [Example 49]
17 | 100 nM | 290 nM | 149 to 150 °C | – | CC(=O)c1ccccc1-c1ccc(C(=O)N2Cc3ccc(C(=O)NCc4cccnc4)n3Cc3ccccc32)cc1 [Example 51]
18 | 620 nM | 1050 nM | 213 to 215 °C | – | CC(O)c1ccccc1-c1ccc(C(=O)N2Cc3ccc(C(=O)NCc4ccc[n+]([O-])c4)n3Cc3ccccc32)cc1 (centres unmarked) [Example 55, 10-{[2′-(1-HYDROXYETHYL)-1,1′-BIPHENYL-4-YL]CARBONYL}-N-[(1-OXIDOPYRIDIN-3-YL)METHYL]-10,11-DIHYDRO-5H-PYRROLO[2,1-C][1,4]BENZODIAZEPINE-3-CARBOXAMIDE]
19 | 900 nM | 1040 nM | 162 to 163 °C | – | O=Cc1ccccc1-c1ccc(C(=O)N2Cc3ccc(C(=O)NCc4cccnc4)n3Cc3ccccc32)cc1 [Example 56]
20 | 700 nM | 2120 nM | 108 to 112 °C | – | Cc1cc(C(=O)N2Cc3ccc(C(=O)NCc4cccnc4)n3Cc3ccccc32)ccc1-c1ccccc1 [Example 57]
21 | 200 nM | 400 nM | 111 to 115 °C | – | CCC(O)c1ccccc1-c1ccc(C(=O)N2Cc3ccc(C(=O)NCc4cccnc4)n3Cc3ccccc32)cc1 (centres unmarked) [Example 58]
22 | 60 nM | 100 nM | 119 to 121 °C | – | O=C(NCc1cccnc1)c1ccc2n1Cc1ccccc1N(C(=O)c1ccc(-c3ccccc3CO)cc1)C2 [Example 59]
23 | 50 nM | 100 nM | 156 to 157 °C | – | COCc1ccccc1-c1ccc(C(=O)N2Cc3ccc(C(=O)NCc4cccnc4)n3Cc3ccccc32)cc1 [Example 61]
24 | 550 nM | 1060 nM | 165 to 167 °C | – | O=C(NCc1cccnc1)c1ccc2n1Cc1ccccc1N(C(=O)c1ccc(-c3ccccc3/C=N/O)cc1)C2 [Example 62]
25 | 380 nM | 1180 nM | 179.5 to 180.5 °C | – | COC(=O)c1ccccc1-c1ccc(C(=O)N2Cc3ccc(C(=O)NCc4cccnc4)n3Cc3ccccc32)cc1 [Example 63]
26 | 2400 nM | 5600 nM | 176 to 177 °C | – | COc1cccc(-c2ccc(C(=O)N3Cc4ccc(C(=O)NCc5cccnc5)n4Cc4ccccc43)cc2C)c1 [Example 70]
27 | 3100 nM | 10500 nM | 176 to 177 °C | – | Cc1cc(C(=O)N2Cc3ccc(C(=O)NCc4cccnc4)n3Cc3ccccc32)ccc1I [Example 74]
28 | 21000 nM | > 30000 nM | 211 to 213 °C (dec.) | – | O=C(c1ccccc1)c1ccc(C(=O)N2Cc3ccc(C(=O)NCc4cccnc4)n3Cc3ccccc32)cc1 [Example 75]
29 | 200 nM | 2480 nM | 234 to 236 °C | – | O=C(NCc1cccnc1)c1ccc2n1Cc1ccccc1N(C(=O)c1ccc(-c3ncccn3)cc1)C2 [Example 105]
30 | 200 nM | 3120 nM | 159 to 161 °C | – | O=C(NCc1cccnc1)c1ccc2n1Cc1ccccc1N(C(=O)c1ccc(-c3ccccn3)cc1)C2 [Example 107]
31 | 1800 nM | 9530 nM | 120 to 125 °C | – | O=C(NCc1cccnc1)c1ccc2n1Cc1ccccc1N(C(=O)c1ccc(-c3cccnc3)cc1)C2 [Example 108]
32 | 300 nM | 2920 nM | 150 to 151 °C | – | Cc1cccnc1-c1ccc(C(=O)N2Cc3ccc(C(=O)NCc4cccnc4)n3Cc3ccccc32)cc1 [Example 109]
33 | 1300 nM | 7990 nM | 107 °C | – | O=C(NCc1cccnc1)c1ccc2n1Cc1ccccc1N(C(=O)c1ccc(-n3cccn3)cc1)C2 [Example 112]
34 | 800 nM | 8840 nM | 196 to 197 °C (dec.) | – | O=C(NCc1cccnc1)c1ccc2n1Cc1ccccc1N(C(=O)c1ccc(N3CCCCC3)cc1)C2 [Example 113]
